# Source: patent US9861616B2, “Methods for treating respiratory diseases and formulations therefor” (priority 2013, dated 2018)
# How the values were obtained:
# IL-8 (CXCL8) release = test: LPS-induced IL-8 (CXCL8) release in PMA-differentiated U937 cells (ELISA); format: cell-based, human
# Description: Effects of macrolides on lipopolysaccharide (LPS)-induced CXCL8 release in PMA-differentiated U937 cells. […] LPS-induced CXCL8 release was evaluated by ELISA. Values represent means of three experiments±SEM. ^##p<0.01 (vs. non-treatment control), *p<0.05, **p<0.01 (vs. treatment with LPS only).
# (§1) The human monocytic cell line U937 was obtained from the American Type Culture Collection (ATCC, Rockville, Md.). PBMCs from COPD patients were obtained from Brompton hospital and separated by AccuSPIN (Sigma-Aldrich). Cells were cultured in complete growth medium (RPMI 1640) (Sigma-Aldrich) supplemented with 10% fetal bovine serum (FBS) and 1% L-glutamine at 37° C. in a humidified atmosphere with 5% CO2. U937 cells were differentiated into adherent macrophage-like morphology by exposure to PMA (50 ng/mL) for 48 hrs in complete growth medium. Cell viability was assessed microscopically by trypan blue staining. Cell toxicity was determined by MTT assay as needed. This study was approved by the ethics committee of the Royal Brompton Hospitals, and all subjects gave written informed consent.
# (§2) TNFα and IL-8 concentrations in the supernatant of cell cultures were determined by sandwich ELISA according to the manufacturer's instructions (R&D Systems Europe, Abingdon, UK).
# (§3) The results were expressed as the mean±SEM. Comparisons of data in two groups were performed using the Student's t test or the Wilcoxon signed rank test. Multiple comparisons were made by one-way ANOVA with post hoc test (Dunnett's) as appropriate. The difference was considered significant at p<0.05. IC50 values (50% inhibitory concentration) for macrolides for production of cytokines or MMP9 were calculated using Prism 4.0 (GraphPad Software Inc., San Diego, Calif.).
# P. aeruginosa PA12 = test: MIC by microdilution with PaβN or EGTA, clinical isolate overexpressing efflux pumps; format: cell-based; details: Pseudomonas aeruginosa
# Description: (§4) MICs of 36 clinical and laboratory strains of PA with known efflux phenotype are measured by microdilution in cation-adjusted Muller-Hinton broth (CA-MHB) or in RPMI medium (commonly used in eukaryotic cell culture). Phe-Arg-β-naphthylamide (PaβN, 50 mg/L) and EGTA 5 mM are used to inhibit efflux pumps and alter OM integrity, respectively. P. aeruginosa strain ATCC PAO1 is used as reference. PA12 is a clinical strain overexpressing the 4 main efflux systems (MexAB, MexCD, MexEF, MexXY), PA403 is a laboratory strain deleted in the genes coding for the 4 efflux systems. A series of reference strains or of clinical isolates for which the expression of genes coding for efflux pumps is known is also used for MICs determinations. MICs are measured by microdilution in MH broth or in RPMI medium (used for eukaryotic cells culture) supplemented with 10% of fetal calf serum, or in MH broth supplemented by increasing amounts of serum. EGTA (5 mM) was used as a chelating agent (disrupting outer membrane integrity) and PaβN (50 mg/L) as an unspecific efflux inhibitor.
# TNFα release = test: LPS-induced TNFα release in PMA-differentiated U937 cells (ELISA); format: cell-based, human
# Description: Effects of macrolides on lipopolysaccharide (LPS)-induced TNFα release in PMA-differentiated U937 cells. […] LPS-induced TNFα release was evaluated by ELISA. Values represent means of three experiments±SEM. ^##p<0.01 (vs. non-treatment control), *p<0.05, **p<0.01 (vs. treatment with LPS only).
# as §1, §2, §3
# P. aeruginosa (PA) = test: MIC by microdilution, 36 clinical and laboratory strains with known efflux phenotype; format: cell-based
# Description: as §4
structure (smiles),measurement,setting,value
"CC[C@H]1OC(=O)[C@H](C)[C@@H](O[C@H]2C[C@@](C)(OC)[C@@H](O)[C@H](C)O2)[C@H](C)[C@@H](O[C@@H]2O[C@H](C)C[C@H](N(C)C)[C@H]2O)[C@](C)(O)C[C@@H](C)CN(C)[C@H](C)[C@@H](O)[C@]1(C)O [AZM, azithromycin]",effect on IL-8 production,IL-8 (CXCL8) release; 33 to 333 μM (FIG. 4),did not inhibit
same,IC50,"IL-8 (CXCL8) release; Homo sapiens, U-937, U937 cells, at 333 μM, read-out: IC50, LPS-induced IL-8 release: NE at 333 μM",> 333 µM
same,MIC,"P. aeruginosa PA12; PA12, PA12, CA-MHB, EGTA 5 mM",256 µg/mL
same,MIC,"P. aeruginosa PA12; PA12, PA12, CA-MHB, PaβN 50 mg/L",2 µg/mL
same,MIC,"P. aeruginosa PA12; PA12, PA12, CA-MHB, control conditions (CT)",256 µg/mL
same,MIC,"P. aeruginosa PA12; PA12, PA12, RPMI, EGTA 5 mM",0.5 µg/mL
same,MIC,"P. aeruginosa PA12; PA12, PA12, RPMI, PaβN 50 mg/L",2 µg/mL
same,MIC,"P. aeruginosa PA12; PA12, PA12, RPMI, control conditions (CT)",2 µg/mL
same,effect on TNFα production,TNFα release; 33 to 333 μM (FIG. 3),did not inhibit
same,IC50,"TNFα release; Homo sapiens, U-937, U937 cells, at 333 μM, read-out: IC50, LPS-induced TNFα release: NE at 333 μM",> 333 µM
same,MIC,"P. aeruginosa (PA); strain 1, efflux AB+, MHB",128 µg/mL
same,MIC,"P. aeruginosa (PA); strain 1, efflux AB+, RPMI",4 µg/mL
same,MIC,"P. aeruginosa (PA); strain 2, efflux CD+, MHB",512 µg/mL
same,MIC,"P. aeruginosa (PA); strain 2, efflux CD+, RPMI",4 µg/mL
same,MIC,"P. aeruginosa (PA); strain 3, efflux EF+, MHB",64 µg/mL
same,MIC,"P. aeruginosa (PA); strain 3, efflux EF+, RPMI",2 µg/mL
same,MIC,"P. aeruginosa (PA); strain 4, efflux XY+, MHB",256 µg/mL
same,MIC,"P. aeruginosa (PA); strain 4, efflux XY+, RPMI",2 µg/mL
same,MIC,"P. aeruginosa (PA); strain 11, efflux AB + CD+, MHB",128 µg/mL
same,MIC,"P. aeruginosa (PA); strain 11, efflux AB + CD+, RPMI",2 µg/mL
same,MIC,"P. aeruginosa (PA); strain 12, efflux AB + CD + EF + XY+, MHB",256 µg/mL
same,MIC,"P. aeruginosa (PA); strain 12, efflux AB + CD + EF + XY+, RPMI",2 µg/mL
same,MIC,"P. aeruginosa (PA); strain 16, efflux AB + XY+, MHB",256 µg/mL
same,MIC,"P. aeruginosa (PA); strain 16, efflux AB + XY+, RPMI",4 µg/mL
same,MIC,"P. aeruginosa (PA); strain 21, efflux AB+, MHB",256 µg/mL
same,MIC,"P. aeruginosa (PA); strain 21, efflux AB+, RPMI",2 µg/mL
same,MIC,"P. aeruginosa (PA); strain 22, efflux XY+, MHB",256 µg/mL
same,MIC,"P. aeruginosa (PA); strain 22, efflux XY+, RPMI",2 µg/mL
same,MIC,"P. aeruginosa (PA); strain 40, efflux EF+, MHB",256 µg/mL
same,MIC,"P. aeruginosa (PA); strain 40, efflux EF+, RPMI",2 µg/mL
same,MIC,"P. aeruginosa (PA); strain 41, efflux CD+, MHB",256 µg/mL
same,MIC,"P. aeruginosa (PA); strain 41, efflux CD+, RPMI",2 µg/mL
same,MIC,"P. aeruginosa (PA); strain 48, efflux CD + EF + XY+, MHB",256 µg/mL
same,MIC,"P. aeruginosa (PA); strain 48, efflux CD + EF + XY+, RPMI",2 µg/mL
same,MIC,"P. aeruginosa (PA); strain 49, efflux CD + EF + XY+, MHB",256 µg/mL
same,MIC,"P. aeruginosa (PA); strain 49, efflux CD + EF + XY+, RPMI",2 µg/mL
same,MIC,"P. aeruginosa (PA); strain 63, efflux AB + EF + XY+, MHB",256 µg/mL
same,MIC,"P. aeruginosa (PA); strain 63, efflux AB + EF + XY+, RPMI",2 µg/mL
same,MIC,"P. aeruginosa (PA); strain 68, efflux AB + XY+, MHB",256 µg/mL
same,MIC,"P. aeruginosa (PA); strain 68, efflux AB + XY+, RPMI",2 µg/mL
same,MIC,"P. aeruginosa (PA); strain 133, efflux EF + XY+, MHB",256 µg/mL
same,MIC,"P. aeruginosa (PA); strain 133, efflux EF + XY+, RPMI",4 µg/mL
same,MIC,"P. aeruginosa (PA); strain 156, efflux EF + XY+, MHB",512 µg/mL
same,MIC,"P. aeruginosa (PA); strain 156, efflux EF + XY+, RPMI",4 µg/mL
same,MIC,"P. aeruginosa (PA); strain 168B, efflux CD + XY+, MHB",512 µg/mL
same,MIC,"P. aeruginosa (PA); strain 168B, efflux CD + XY+, RPMI",4 µg/mL
same,MIC,"P. aeruginosa (PA); strain 207, efflux AB + EF + XY+, MHB",512 µg/mL
same,MIC,"P. aeruginosa (PA); strain 207, efflux AB + EF + XY+, RPMI",4 µg/mL
same,MIC,"P. aeruginosa (PA); strain 266B, efflux AB + CD+, MHB",256 µg/mL
same,MIC,"P. aeruginosa (PA); strain 266B, efflux AB + CD+, RPMI",2 µg/mL
same,MIC,"P. aeruginosa (PA); strain 333A, efflux AB + EF+, MHB",256 µg/mL
same,MIC,"P. aeruginosa (PA); strain 333A, efflux AB + EF+, RPMI",2 µg/mL
same,MIC,"P. aeruginosa (PA); strain 335, efflux AB + EF+, MHB",512 µg/mL
same,MIC,"P. aeruginosa (PA); strain 335, efflux AB + EF+, RPMI",4 µg/mL
same,MIC,"P. aeruginosa (PA); strain 391, efflux EF−, MHB",128 µg/mL
same,MIC,"P. aeruginosa (PA); strain 391, efflux EF−, RPMI",2 µg/mL
same,MIC,"P. aeruginosa (PA); strain 392, efflux CD−, MHB",128 µg/mL
same,MIC,"P. aeruginosa (PA); strain 392, efflux CD−, RPMI",2 µg/mL
same,MIC,"P. aeruginosa (PA); strain 394, efflux XY−, MHB",256 µg/mL
same,MIC,"P. aeruginosa (PA); strain 394, efflux XY−, RPMI",4 µg/mL
same,MIC,"P. aeruginosa (PA); strain 395, efflux HI−, MHB",128 µg/mL
same,MIC,"P. aeruginosa (PA); strain 395, efflux HI−, RPMI",2 µg/mL
same,MIC,"P. aeruginosa (PA); strain 396, ompH−, MHB",64 µg/mL
same,MIC,"P. aeruginosa (PA); strain 396, ompH−, RPMI",2 µg/mL
same,MIC,"P. aeruginosa (PA); strain 397, efflux AB−, MHB",8 µg/mL
same,MIC,"P. aeruginosa (PA); strain 397, efflux AB−, RPMI",1 µg/mL
same,MIC,"P. aeruginosa (PA); strain 398, efflux CD−, MHB",16 µg/mL
same,MIC,"P. aeruginosa (PA); strain 398, efflux CD−, RPMI",1 µg/mL
same,MIC,"P. aeruginosa (PA); strain 399, efflux AB − EF−, MHB",16 µg/mL
same,MIC,"P. aeruginosa (PA); strain 399, efflux AB − EF−, RPMI",2 µg/mL
same,MIC,"P. aeruginosa (PA); strain 400, efflux XY−, MHB",8 µg/mL
same,MIC,"P. aeruginosa (PA); strain 400, efflux XY−, RPMI",2 µg/mL
same,MIC,"P. aeruginosa (PA); strain 401, ompH−, MHB",8 µg/mL
same,MIC,"P. aeruginosa (PA); strain 401, ompH−, RPMI",2 µg/mL
same,MIC,"P. aeruginosa (PA); strain 403, efflux AB − CD − EF − XY−, MHB",8 µg/mL
same,MIC,"P. aeruginosa (PA); strain 403, efflux AB − CD − EF − XY−, RPMI",2 µg/mL
same,MIC,"P. aeruginosa (PA); strain 405, efflux AB − CD − EF − XY−, MHB",8 µg/mL
same,MIC,"P. aeruginosa (PA); strain 405, efflux AB − CD − EF − XY−, RPMI",2 µg/mL
same,MIC,"P. aeruginosa (PA); strain 434, efflux AB + CD + XY+, MHB",512 µg/mL
same,MIC,"P. aeruginosa (PA); strain 434, efflux AB + CD + XY+, RPMI",4 µg/mL
same,MIC,"P. aeruginosa (PA); strain PAO1, REFERENCE, MHB",256 µg/mL
same,MIC,"P. aeruginosa (PA); strain PAO1, REFERENCE, RPMI",4 µg/mL
